# Where two headings read alike, the source gives them in different places.
# Assays:
# CYP1A2 [1] = target: T1, CYP1A2 (Homo sapiens, UniProt P05177); test: in vitro; conditions: 8HUM, mouse, microsomes, pH 7.4, Inhibition of 7-methoxyresorufin metabolism
# T1 sequence (P05177 1-516): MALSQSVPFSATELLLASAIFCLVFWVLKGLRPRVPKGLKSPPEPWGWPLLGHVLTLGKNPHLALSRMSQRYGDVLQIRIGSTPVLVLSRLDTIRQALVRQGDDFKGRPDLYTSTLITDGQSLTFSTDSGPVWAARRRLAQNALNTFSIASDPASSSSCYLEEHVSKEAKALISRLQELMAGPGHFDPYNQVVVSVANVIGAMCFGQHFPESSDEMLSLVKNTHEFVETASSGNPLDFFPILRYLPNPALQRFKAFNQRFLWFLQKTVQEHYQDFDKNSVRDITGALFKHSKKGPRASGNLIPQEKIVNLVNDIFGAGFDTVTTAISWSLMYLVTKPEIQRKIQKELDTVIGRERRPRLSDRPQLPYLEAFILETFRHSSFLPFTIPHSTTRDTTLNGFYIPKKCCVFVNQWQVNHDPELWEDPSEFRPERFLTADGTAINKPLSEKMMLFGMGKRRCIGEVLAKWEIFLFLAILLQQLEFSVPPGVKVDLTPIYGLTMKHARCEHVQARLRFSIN
# Description: (§2) A mixture of either 7-methoxyresorufin or 7-ethoxyresorufin (1 μM) and 8HUM liver microsomes or HLM (∼0.38 mg protein/ml) in 100 mM potassium phosphate buffer (pH 7.4) supplemented with MgCl2 (3.3 mM) was incubated at 37°C for 5 minutes before the addition of NADPH (final concentration 1.2 mM). […] Slopes of the linear part of the kinetic curves were calculated using Ascent Software Version 2.4.1 (Labsystems). For each reaction two controls, with and without reaction product resorufin (40 pmol) were run. Fluorescence was measured from both control wells and the difference in fluorescence intensity between wells with and without resorufin was used for the conversion of the relative fluorescence units to the picomoles of the reaction product.
# CYP2D6 [2] = target: CYP2D6 (Homo sapiens, UniProt P10635, R296C/S486T); test: Enzyme inhibition assay, debrisoquine 4-hydroxylation (HLM, 8HUM microsomes); conditions: 8HUM microsomes […]; debrisoquine 67 μM in cocktail; furafylline 3, enoxacin 200, fluconazole 300, sulfaphenazole 3, quinidine 3, paroxetine 10, ketoconazole 1 μM
# Description: (§1) After a 5-minute preincubation at 37°C, reactions were initiated by addition of NADPH (1.3 mM). […] The samples were then centrifuged at 3000g for 55 minutes at 4°C, and an aliquot of the supernatant fraction was analyzed by LC-MS/MS. All experiments were performed at least in triplicate.
# CYP2D6 [3] = test: as above; conditions: for Debrisoquine (4-OH Debrisoquine) activity, percent of activity measured in the absence of inhibitor: HLM […], debrisoquine 67 μM in cocktail, furafylline 3, enoxacin 200, fluconazole 300, sulfaphenazole 3, quinidine 3, paroxetine 10, ketoconazole 1 μM
# Description: as §1
# CYP2C9 [4] = target: T2, CYP2C9 (Homo sapiens, UniProt P11712); test: Enzyme inhibition assay, tolbutamide hydroxylation (HLM, 8HUM microsomes); conditions: tolbutamide 2 μM in cocktail, furafylline 3, enoxacin 200, fluconazole 300, sulfaphenazole 3, quinidine 3, paroxetine 10, ketoconazole 1 μM
# Description: as §1
# CYP1A2 [5] = target: T1, CYP1A2; test: Enzyme inhibition assay, caffeine to paraxanthine (HLM, 8HUM microsomes); conditions: caffeine 220 μM in cocktail, furafylline 3, enoxacin 200, fluconazole 300, sulfaphenazole 3, quinidine 3, paroxetine 10, ketoconazole 1 μM
# Description: as §1
# CYP2C9 [6] = target: T2, CYP2C9; conditions: sulfaphenazole 50 μM
# CYP1A2 [7] = target: T1, CYP1A2
# Description: as §2
# CYP3A4 [8] = test: CYP3A4 induction by PXR activators in humanized CAR/PXR/CYP3A4 mice; conditions: CAR/PXR/CYP3A4 model (Supplemental Fig. 4)
# Description: We therefore sought to identify a specific, clinically relevant PXR agonist that was nontoxic. […] Subsequent studies were therefore undertaken using SJW to induce CYP3A4 expression in 8HUM mice.
# CYP3A4 [9] = target: T3, CYP3A4 (Homo sapiens, UniProt P08684); test: 7-Benzyloxyquinoline O-debenzylation in liver microsomes of rifampicin- or vehicle-treated 8HUM mice; assay type: in vitro ADME; conditions: liver microsomes of rifampicin-treated 8HUM mice
# T3 construct: pooled rifampicin-treated male and female 8HUM mice (8HUM) or pooled human liver microsomes (HLM); host or cells: liver microsomes: pooled human liver; liver of 8HUM mice carrying human CYP3A4/CYP3A7 under the human promoter
# [10] = Pharmacokinetics of cassette-dosed probe drugs in 8HUM mice with or without rifampicin pretreatment; conditions: female, mouse, in vivo, po, AUCall, female 8HUM mice, oral cassette: caffeine, debrisoquine, tolbutamide 5 mg/kg, midazolam 3 mg/kg
# Description: Female 8HUM mice received either two daily intraperitoneal doses of RIF (n = 4; 20–26 weeks) or vehicle (corn oil; n = 4; 25–29 weeks). […] Blood samples (10 μl) were collected at the indicated time points after dosing, mixed immediately with 10 μl of heparin (15 IU/ml), snap frozen in liquid nitrogen, and stored at approximately −70°C prior to analysis (see Supplemental Data for details).
# Pharmacokinetic parameters were calculated by Phoenix WinNonlin version 8.0.0.3176 (Certara, Princeton, NJ).
# Fig. 2. […] Data shown are mean ± S.D.
# CYP3A4 [11] = target: T3, CYP3A4; test: Kinetic parameters of 1-hydroxyl midazolam formation in liver microsomes (HLM, 8HUM); assay type: in vitro ADME; conditions: pH 7.4
# Description: All samples were handled in amber tubes under conditions of subdued light for the duration of the procedure. […] The samples were then centrifuged at 3000g for 55 minutes at 4°C and an aliquot of the supernatant fraction was analyzed by LC-MS/MS.
# Calibration curves were constructed with authentic metabolite standards and linear regression analysis used to calculate the amount of metabolite formed in each test sample. […] The 7-ethoxyresorufin O-deethylation assay was carried out as detailed below.
# [12] = Osimertinib pharmacokinetics in 8HUM mice: effect of rifampicin and β-naphthoflavone; conditions: female, mouse, in vivo, po, 25 mg/kg; for AUC / Cmax: female 8HUM mice, osimertinib 25 mg/kg oral
# Description: Humans and rodents metabolize drugs down different pathways and also generate different metabolites both in their site of oxidation as well as in different metabolite ratios when multiple sites of oxidation are involved. […] Mice were pretreated with either RIF or a combination of RIF and β-naphthoflavone (BNF), an aryl hydrocarbon receptor agonist that induces P450s in the CYP1A gene family.
# Fig. 4. […] Osimertinib structure and sites of metabolism in humans (C) are also shown. […] Panel B prints no name for the measured substance; it is presumably Osimertinib, the name printed in panel A.
# [13] = parameters: method as in Cross et al., 2014; conditions: WT mice; ref Cross et al., 2014; cited from earlier work
# [14] = RIF + BNF 80 mg/kg i.p. daily 3 days
# [15] = RIF in diet (equivalent 10 mg/kg) 3 days
# T2 sequence (P11712 whole entry): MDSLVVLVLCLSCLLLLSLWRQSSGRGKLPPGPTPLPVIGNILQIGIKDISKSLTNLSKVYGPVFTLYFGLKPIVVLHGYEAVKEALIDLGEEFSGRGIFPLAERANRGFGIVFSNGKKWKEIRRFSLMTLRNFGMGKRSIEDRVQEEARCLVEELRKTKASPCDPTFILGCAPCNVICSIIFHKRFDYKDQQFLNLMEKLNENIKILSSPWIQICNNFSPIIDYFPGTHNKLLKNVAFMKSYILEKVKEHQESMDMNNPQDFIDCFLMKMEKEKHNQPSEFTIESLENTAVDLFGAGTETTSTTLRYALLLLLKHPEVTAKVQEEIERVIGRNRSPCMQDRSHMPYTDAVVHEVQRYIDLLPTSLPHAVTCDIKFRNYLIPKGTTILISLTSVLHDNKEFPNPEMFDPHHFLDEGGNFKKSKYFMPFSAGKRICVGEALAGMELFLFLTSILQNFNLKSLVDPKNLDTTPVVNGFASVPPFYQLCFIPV
# T3 sequence (P08684 whole entry): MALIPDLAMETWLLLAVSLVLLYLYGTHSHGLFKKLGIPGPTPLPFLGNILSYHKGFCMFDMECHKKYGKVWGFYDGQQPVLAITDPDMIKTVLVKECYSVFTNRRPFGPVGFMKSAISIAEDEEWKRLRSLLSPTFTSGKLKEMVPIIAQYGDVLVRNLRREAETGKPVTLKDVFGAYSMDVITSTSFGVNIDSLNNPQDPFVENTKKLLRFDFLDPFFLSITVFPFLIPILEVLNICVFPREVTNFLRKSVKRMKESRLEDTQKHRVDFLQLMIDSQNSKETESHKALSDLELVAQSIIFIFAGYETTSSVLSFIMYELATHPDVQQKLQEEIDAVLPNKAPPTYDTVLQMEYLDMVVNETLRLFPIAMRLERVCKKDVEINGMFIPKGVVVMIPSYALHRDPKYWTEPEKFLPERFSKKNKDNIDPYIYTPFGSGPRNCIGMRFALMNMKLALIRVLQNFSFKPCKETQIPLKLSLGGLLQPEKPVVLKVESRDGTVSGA
structure (smiles),measurement,setting,value
O=c1cc(-c2ccccc2)oc2c1ccc1ccccc12 [α-naphthoflavone],inhibition at 3.33 μM,CYP1A2 [1],75%
"Cc1nc2c([nH]1)c(=O)n(C)c(=O)n2Cc1ccco1 [Furafylline, furafylline]","Debrisoquine (4-OH Debrisoquine) activity, percent of activity measured in the absence of inhibitor",CYP2D6 [2],91 ± 13%
same,"Debrisoquine (4-OH Debrisoquine) activity, percent of activity measured in the absence of inhibitor",CYP2D6 [3],65 ± 9%
same,"Tolbutamide (OH-Tolbutamide) activity, percent of activity measured in the absence of inhibitor",CYP2C9 [4]; 8HUM microsomes […],63 ± 19%
same,"Tolbutamide (OH-Tolbutamide) activity, percent of activity measured in the absence of inhibitor",CYP2C9 [4]; HLM […],103 ± 25%
"OC(Cn1cncn1)(Cn1cncn1)c1ccc(F)cc1F [Fluconazole, fluconazole]","Debrisoquine (4-OH Debrisoquine) activity, percent of activity measured in the absence of inhibitor",CYP2D6 [2],88 ± 19%
same,"Debrisoquine (4-OH Debrisoquine) activity, percent of activity measured in the absence of inhibitor",CYP2D6 [3],96 ± 9%
same,"Tolbutamide (OH-Tolbutamide) activity, percent of activity measured in the absence of inhibitor",CYP2C9 [4]; 8HUM microsomes […],41 ± 33%
same,"Tolbutamide (OH-Tolbutamide) activity, percent of activity measured in the absence of inhibitor",CYP2C9 [4]; HLM […],35 ± 21%
same,"Caffeine (Paraxanthine) activity, percent of activity measured in the absence of inhibitor",CYP1A2 [5]; 8HUM microsomes […],100 ± 31%
same,"Caffeine (Paraxanthine) activity, percent of activity measured in the absence of inhibitor",CYP1A2 [5]; HLM […],114 ± 37%
"Nc1ccc(S(=O)(=O)Nc2ccnn2-c2ccccc2)cc1 [Sulfaphenazole, sulfaphenazole]",Remaining tolbutamide 4-hydroxylation activity in the presence of inhibitor,CYP2C9 [6]; liver microsomes of control 8HUM mice,2.01 ± 0.33 pmol/min per milligram
same,Remaining tolbutamide 4-hydroxylation activity in the presence of inhibitor,CYP2C9 [6]; liver microsomes of rifampicin-treated 8HUM mice,11.43 ± 9.38 pmol/min per milligram
same,"Tolbutamide (OH-Tolbutamide) activity, percent of activity measured in the absence of inhibitor",CYP2C9 [4]; 8HUM microsomes […],28 ± 15%
same,"Tolbutamide (OH-Tolbutamide) activity, percent of activity measured in the absence of inhibitor",CYP2C9 [4]; HLM […],14 ± 4%
"C=C[C@H]1C[N@@]2CC[C@H]1C[C@@H]2[C@@H](O)c1ccnc2ccc(OC)cc12 [Quinidine, quinidine]","Debrisoquine (4-OH Debrisoquine) activity, percent of activity measured in the absence of inhibitor",CYP2D6 [2],43 ± 5%
COc1ccc2nc3ccc(=O)cc-3oc2c1 [7-methoxyresorufin],Rate of 7-methoxyresorufin metabolism,CYP1A2 [7],42.84 ± 9.93 pmol/min per milligram
"O=C1Nc2ccc(Cl)cc2[C@@](C#CC2CC2)(C(F)(F)F)O1 [EFV, efavirenz]",Induction of CYP3A4,CYP3A4 [8],effective inducers of CYP3A4
"Fc1ccc([C@@H]2CCNC[C@H]2COc2ccc3c(c2)OCO3)cc1 [Paroxetine, paroxetine]","Debrisoquine (4-OH Debrisoquine) activity, percent of activity measured in the absence of inhibitor",CYP2D6 [3],52 ± 11%
same,Species difference in extent of inhibition of debrisoquine 4-hydroxylation (HLM vs 8HUM microsomes),CYP2D6 [3]; HLM vs microsomes from 8HUM mice,4 fold
"c1ccc(COc2ccc3cccnc3c2)cc1 [7-BQ, 7-benzyloxyquinoline]",Rate of 7-BQ hydroxylation (metabolism),CYP3A4 [9],4218 ± 550 pmol/min per milligram
"Cc1ncc2n1-c1ccc(Cl)cc1C(c1ccccc1F)=NC2 [Midazolam, midazolam]",AUC,[10]; rifampicin 10 mg/kg i.p. daily for 2 days pretreatment,68.8 ± 21.1 ng·h/mL
same,AUC,[10]; vehicle (corn oil) i.p. pretreatment,860 ± 138 ng·h/mL
same,Km at 2 min,"CYP3A4 [11]; both sexes, 8HUM, mouse, liver microsomes of pooled rifampicin-treated 8HUM mice",1.2 ± 0.3 µM
same,Km at 2 min,"CYP3A4 [11]; human, pooled human liver microsomes",0.73 ± 0.2 µM
C=CC(=O)Nc1cc(Nc2nccc(-c3cn(C)c4ccccc34)n2)c(OC)cc1N(C)CCN(C)C [osimertinib],half-life,"[12]; 8HUM mice, osimertinib 25 mg/kg by oral gavage",20 h
same,AUC,[12]; Control (normal RM1 diet),3750 ± 614 ng·h/mL
same,Cmax,[12]; Control (normal RM1 diet),199 ± 29 ng/mL
same,AUC,[12]; [14],661 ± 132 ng·h/mL
same,Cmax,[12]; [14],71 ± 7 ng/mL
same,AUC,[12]; [15],2140 ± 631 ng·h/mL
same,Cmax,[12]; [15],139 ± 26 ng/mL
same,half-life,[13],3.5 h
"CCC1(c2ccccc2)C(=O)NC(=O)NC1=O [PB, phenobarbital]",Induction of CYP3A4,CYP3A4 [8],effective inducers of CYP3A4
